Measured values: patent US9133179B2, “2-methoxy-pyridin-4-yl-derivatives” (Actelion Pharmaceuticals Ltd., priority 2011, dated 2015)

Legend:
[1] = target: T1, human S1P1 (EDG1) receptor (Homo sapiens, UniProt P21453); experiment: S1P1 β-arrestin recruitment (Tango) assay to determine EC50 values; format: cell-based; settings: Tango-EDG1 bla U2OS cells, 16 h incubation
T1 construct: host or cells: U2OS (Tango EDG1-bla U2OS)
Description: S1P1 β-Arrestin Recruitment (Tango) Assay to Determine EC50 Values
Upon ligand activation, G protein-coupled receptors (GPCR) trigger two pathways that independently transduce signals to the cell: one through heterotrimeric GTP-binding proteins (G proteins) and one through β-arrestins. Agonist-induced GPCRs recruit β-arrestin proteins, which then bind to the carboxy-terminal domain of ligand-activated GPCRs. The amount of β-arrestin recruitment can be used to assess the potency and efficacy of GPCR activating ligands.
To measure the potency and efficacy of compounds as S1P1 (EDG1) receptor agonists, Tango™-EDG1 bla U2OS cells (Invitrogen, USA, Catalog #K1520) are used. The Tango™ GPCR technology is based on GeneBLAzer β-lactamase reporter cell assays, which uses a mammalian-optimized β-lactamase reporter gene (bla) combined with a FRET-enabled substrate. The host cells, U2OS, stably express a human S1P1 (EDG1) receptor/transcription factor (TF) fusion protein. The cells also express a recombinant protease tagged β-arrestin protein, which is recruited to the S1P1 receptor upon ligand stimulation and specifically cleaves the S1P1-TF fusion protein. The released TF activates the β-lactamase (bla) reporter gene. To measure the reporter gene activity, cells are loaded with a fluorescent substrate containing two chemically coupled fluorophores, coumarin and fluorescein. […] In the presence of bla, the chemical bond is cleaved and FRET is inhibited. […] The amount of β-arrestin recruitment is proportional to the increase in blue fluorescence.
Tango™-EDG1 bla U2OS cells are cultivated in McCoy's 5A containing 10% dialyzed FBS, 0.1 mM NEAA, 25 mM HEPES, 1 mM sodium pyruvate, 1% Penicillin/Streptomycin, 200 μg/ml zeocin, 50 μg/ml hygromycin and 100 μg/ml geneticin (Invitrogen, USA). Cells are detached with trypsin, resuspended in medium and then counted.
Compounds (10 mM stock in DMSO) are diluted first in DMSO. The pre-diluted compounds solutions are then transferred into Assay Medium/0.1% fatty acid free BSA to reach a fourfold concentrated compound stock, which is applied to the cells to reach the final compound concentrations that range from 10 μM to 0.0005 nM (0.5% final DMSO). Cells are then incubated for 16 h at 37° C. and 5% CO2.

circulating lymphocytes = experiment: Assessment of in vivo efficacy: circulating lymphocytes after oral administration to Wistar rats; design: species or system rat; settings: Rattus norvegicus, Lymphocyte, normotensive male Wistar rats, compared to vehicle group, read-out: Lymphocyte counts; for change in vivo at 10 mg/kg: 6 h after oral administration of 10 mg/kg; for change in vivo at 3 mg/kg: 6 h after an oral dose of 3 mg/kg
Experimental: Assessment of In Vivo Efficacy
The efficacy of the compounds of Formula (I) is assessed by measuring the circulating lymphocytes after oral administration of 3 to 30 mg/kg of a compound of Formula (I) to normotensive male Wistar rats. The animals are housed in climate-controlled conditions with a 12 h-light/dark cycle, and have free access to normal rat chow and drinking water. […] Full blood is subjected to hematology using Advia Hematology system (Bayer Diagnostics, Zurich, Switzerland).
All data are presented as mean±SEM. Statistical analyses are performed by analysis of variance (ANOVA) using Statistica (StatSoft) and the Student-Newman-Keuls procedure for multiple comparisons. The null hypothesis is rejected when p<0.05.

T1 sequence (P21453 whole entry): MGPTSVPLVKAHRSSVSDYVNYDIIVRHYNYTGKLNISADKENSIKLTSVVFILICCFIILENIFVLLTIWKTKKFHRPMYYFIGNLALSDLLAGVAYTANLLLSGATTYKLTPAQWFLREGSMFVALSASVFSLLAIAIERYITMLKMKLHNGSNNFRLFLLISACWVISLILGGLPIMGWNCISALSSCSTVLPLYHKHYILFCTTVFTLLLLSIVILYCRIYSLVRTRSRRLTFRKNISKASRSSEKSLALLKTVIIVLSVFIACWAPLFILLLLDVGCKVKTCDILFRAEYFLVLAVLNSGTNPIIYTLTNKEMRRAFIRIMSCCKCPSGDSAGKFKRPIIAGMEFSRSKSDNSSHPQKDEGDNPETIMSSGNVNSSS

How did the EC50 [1] turn out when `CCc1cc(-c2noc(-c3cc(OC)nc(C4CCCC4)c3)n2)cc(C)c1OC[C@@H](O)CNC(=O)CCC(=O)O` [Example 15, (S)-4-((3-(4-(5-(2-Cyclopentyl-6-methoxypyridin-4-yl)-1,2,4-oxadiazol-3-yl)-2-ethyl-6-methylphenoxy)-2-hydroxypropyl)amino)-4-oxobutanoic acid] was run?
Its EC50 is 0.02 nM.

What about the change in vivo at 10 mg/kg (circulating lymphocytes) of the same compound?
Its change in vivo at 10 mg/kg is -55%.

Which EC50 [1] does the source give for `CCc1cc(-c2noc(-c3cc(OC)nc(C4CCCC4)c3)n2)cc(C)c1OCCCN(C)CCC(=O)O` [Example 21, 3-((3-(4-(5-(2-Cyclopentyl-6-methoxypyridin-4-yl)-1,2,4-oxadiazol-3-yl)-2-ethyl-6-methylphenoxy)propyl)(methyl)amino)propanoic acid] here?
Its EC50 is 0.659 nM.

What about the change in vivo at 10 mg/kg (circulating lymphocytes) of the same compound?
The change in vivo at 10 mg/kg was -74%.

Which EC50 [1] does the source give for `CCc1cc(-c2noc(-c3cc(OC)nc(C4CCCC4)c3)n2)cc(C)c1OC[C@@H](O)CN(C)CC(=O)O` [Example 11, (S)-2-((3-(4-(5-(2-Cyclopentyl-6-methoxypyridin-4-yl)-1,2,4-oxadiazol-3-yl)-2-ethyl-6-methylphenoxy)-2-hydroxypropyl)(methyl)amino)acetic acid] here?
The EC50 was 0.2 nM.

What about the change in vivo at 10 mg/kg (circulating lymphocytes) of the same compound?
The change in vivo at 10 mg/kg was -60%.

For `CCc1cc(-c2noc(-c3cc(OC)nc(C4CCCC4)c3)n2)cc(C)c1OCCCN(C)C(=O)CC(=O)O` [Example 33, 3-((3-(4-(5-(2-Cyclopentyl-6-methoxypyridin-4-yl)-1,2,4-oxadiazol-3-yl)-2-ethyl-6-methylphenoxy)propyl)(methyl)amino)-3-oxopropanoic acid], which EC50 [1] is on record?
The EC50 was 0.501 nM.

What about the change in vivo at 10 mg/kg (circulating lymphocytes) of the same compound?
Its change in vivo at 10 mg/kg is -78%.

`CCc1cc(-c2noc(-c3cc(OC)nc(C4CCCC4)c3)n2)cc(C)c1OCCN(C)CC(=O)O` [Example 16, 2-((2-(4-(5-(2-Cyclopentyl-6-methoxypyridin-4-yl)-1,2,4-oxadiazol-3-yl)-2-ethyl-6-methylphenoxy)ethyl)(methyl)amino)acetic acid] was tested. Which EC50 [1] did it give?
The EC50 was 0.2 nM.

What about the change in vivo at 10 mg/kg (circulating lymphocytes) of the same compound?
The change in vivo at 10 mg/kg was -75%.

For `CCc1cc(-c2noc(-c3cc(OC)nc(C4CCCC4)c3)n2)cc(C)c1OCCCN(C)CC(=O)O` [Example 20, 2-((3-(4-(5-(2-Cyclopentyl-6-methoxypyridin-4-yl)-1,2,4-oxadiazol-3-yl)-2-ethyl-6-methylphenoxy)propyl)(methyl)amino)acetic acid], which EC50 [1] is on record?
The EC50 was 1.5 nM.

And the change in vivo at 10 mg/kg (circulating lymphocytes)?
Its change in vivo at 10 mg/kg is -57%.

With `COc1cc(-c2nc(-c3cc(C)c(OCCNCCC(=O)O)c(Cl)c3)no2)cc(C2CCCC2)n1` [Example 43, 3-((2-(2-Chloro-4-(5-(2-cyclopentyl-6-methoxypyridin-4-yl)-1,2,4-oxadiazol-3-yl)-6-methylphenoxy)ethyl)amino)propanoic acid] as the compound, how does the EC50 [1] read?
The EC50 was 0.1 nM.

What about the change in vivo at 10 mg/kg (circulating lymphocytes) of the same compound?
The change in vivo at 10 mg/kg was -62%.

Which EC50 [1] does the source give for `CCc1cc(-c2noc(-c3cc(OC)nc(C4CCCC4)c3)n2)cc(C)c1OCCNC(=O)CC(=O)O` [Example 49, 3-((2-(4-(5-(2-Cyclopentyl-6-methoxypyridin-4-yl)-1,2,4-oxadiazol-3-yl)-2-ethyl-6-methylphenoxy)ethyl)amino)-3-oxopropanoic acid] here?
The EC50 was 0.05 nM.

And the change in vivo at 3 mg/kg (circulating lymphocytes)?
Its change in vivo at 3 mg/kg is -49%.

`CCc1cc(-c2noc(-c3cc(OC)nc(C4CCCC4)c3)n2)cc(C)c1OCCN1CCC(C(=O)O)C1` (racemic) [Example 8, rac-1-(2-(4-(5-(2-Cyclopentyl-6-methoxypyridin-4-yl)-1,2,4-oxadiazol-3-yl)-2-ethyl-6-methylphenoxy)ethyl)pyrrolidine-3-carboxylic acid] was tested. Which EC50 [1] did it give?
Its EC50 is 0.3 nM.

And the change in vivo at 10 mg/kg (circulating lymphocytes)?
The change in vivo at 10 mg/kg was -66%.

For `COc1cc(-c2nc(-c3cc(Cl)c(OCCNCCC(=O)O)c(OC)c3)no2)cc(C2CCCC2)n1` [Example 37, 3-((2-(2-Chloro-4-(5-(2-cyclopentyl-6-methoxypyridin-4-yl)-1,2,4-oxadiazol-3-yl)-6-methoxyphenoxy)ethyl)amino)propanoic acid], which EC50 [1] is on record?
Its EC50 is 0.2 nM.

And the change in vivo at 10 mg/kg (circulating lymphocytes)?
The change in vivo at 10 mg/kg was -71%.

What does the source list for `COc1cc(-c2nc(-c3cc(Cl)c(OCCN4CC(C(=O)O)C4)c(OC)c3)no2)cc(C2CCCC2)n1` [Example 52, 1-(2-(2-Chloro-4-(5-(2-cyclopentyl-6-methoxypyridin-4-yl)-1,2,4-oxadiazol-3-yl)-6-methoxyphenoxy)ethyl)azetidine-3-carboxylic acid]?
EC50 [1]: 0.6 nM; change in vivo at 10 mg/kg (circulating lymphocytes): -71%

What does the source list for `CCc1cc(-c2nnc(-c3cc(OC)nc(C4CCCC4)c3)o2)cc(C)c1OCC(=O)O` [Example 60, 2-(4-(5-(2-Cyclopentyl-6-methoxypyridin-4-yl)-1,3,4-oxadiazol-2-yl)-2-ethyl-6-methylphenoxy)acetic acid]?
EC50 [1]: 7.2 nM; change in vivo at 10 mg/kg (circulating lymphocytes): -35%

`CCc1cc(-c2noc(-c3cc(OC)nc(C4CCCC4)c3)n2)cc(C)c1OC[C@@H](O)CNCCC(=O)O` [Example 10] was tested. Which EC50 [1] did it give?
The EC50 was 0.06 nM.

What about the change in vivo at 10 mg/kg (circulating lymphocytes) of the same compound?
The change in vivo at 10 mg/kg was -51%.

`CCc1cc(-c2nc(-c3cc(OC)nc(C4CCCC4)c3)no2)cc(C)c1OCC(=O)O` [Example 53, 2-(4-(3-(2-Cyclopentyl-6-methoxypyridin-4-yl)-1,2,4-oxadiazol-5-yl)-2-ethyl-6-methylphenoxy)acetic acid] was tested. Which EC50 [1] did it give?
Its EC50 is 1.2 nM.

What about the change in vivo at 10 mg/kg (circulating lymphocytes) of the same compound?
Its change in vivo at 10 mg/kg is -72%.

For `CCc1cc(-c2nc(-c3cc(OC)nc(C4CCCC4)c3)no2)cc(C)c1OCCCNCC(=O)O` [Example 59, 2-((3-(4-(3-(2-Cyclopentyl-6-methoxypyridin-4-yl)-1,2,4-oxadiazol-5-yl)-2-ethyl-6-methylphenoxy)propyl)amino)acetic acid], which EC50 [1] is on record?
The EC50 was 2.7 nM.

What about the change in vivo at 10 mg/kg (circulating lymphocytes) of the same compound?
The change in vivo at 10 mg/kg was -82%.

How did the EC50 [1] turn out when `COc1cc(-c2nc(-c3cc(C)c(OCC(=O)NCCO)c(Cl)c3)no2)cc(C2CCCC2)n1` [Example 42, 2-(2-Chloro-4-(5-(2-cyclopentyl-6-methoxypyridin-4-yl)-1,2,4-oxadiazol-3-yl)-6-methyl-phenoxy)-N-(2-hydroxyethyl)acetamide] was run?
The EC50 was 0.4 nM.

What about the change in vivo at 10 mg/kg (circulating lymphocytes) of the same compound?
The change in vivo at 10 mg/kg was -75%.

With `CCc1cc(-c2noc(-c3cc(OC)nc(C4CCCC4)c3)n2)cc(C)c1OC[C@@H](O)CNCC(=O)O` [Example 9, (S)-2-((3-(4-(5-(2-Cyclopentyl-6-methoxypyridin-4-yl)-1,2,4-oxadiazol-3-yl)-2-ethyl-6-methylphenoxy)-2-hydroxypropyl)amino)acetic acid] as the compound, how does the EC50 [1] read?
The EC50 was 0.07 nM.

What about the change in vivo at 10 mg/kg (circulating lymphocytes) of the same compound?
Its change in vivo at 10 mg/kg is -72%.

Which EC50 [1] does the source give for `COc1cc(-c2nc(-c3cc(Cl)c(OCCCC(=O)NCCO)c(OC)c3)no2)cc(C2CCCC2)n1` [Example 36, 4-(2-Chloro-4-(5-(2-cyclopentyl-6-methoxypyridin-4-yl)-1,2,4-oxadiazol-3-yl)-6-methoxyphenoxy)-N-(2-hydroxyethyl)butanamide] here?
The EC50 was 1.7 nM.

And the change in vivo at 10 mg/kg (circulating lymphocytes)?
The change in vivo at 10 mg/kg was -73%.

Which results are given for `CCc1cc(-c2noc(-c3cc(OC)nc(C4CCCC4)c3)n2)cc(C)c1OCCNCCCC(=O)O` [Example 39, 4-((2-(4-(5-(2-Cyclopentyl-6-methoxypyridin-4-yl)-1,2,4-oxadiazol-3-yl)-2-ethyl-6-methylphenoxy)ethyl)amino)butanoic acid]?
EC50 [1]: 0.1 nM; change in vivo at 10 mg/kg (circulating lymphocytes): -66%

Which results are given for `COc1cc(-c2nc(-c3cc(C)c(OCCN4CC(C(=O)O)C4)c(Cl)c3)no2)cc(C2CCCC2)n1` [Example 44, 1-(2-(2-Chloro-4-(5-(2-cyclopentyl-6-methoxypyridin-4-yl)-1,2,4-oxadiazol-3-yl)-6-methylphenoxy)ethyl)azetidine-3-carboxylic acid]?
EC50 [1]: 0.1 nM; change in vivo at 10 mg/kg (circulating lymphocytes): -62%

Which EC50 [1] does the source give for `COc1cc(-c2nc(-c3cc(Cl)c(OCCNCC(=O)O)c(OC)c3)no2)cc(C2CCCC2)n1` [Example 51, 2-((2-(2-Chloro-4-(5-(2-cyclopentyl-6-methoxypyridin-4-yl)-1,2,4-oxadiazol-3-yl)-6-methoxyphenoxy)ethyl)amino)acetic acid] here?
The EC50 was 0.7 nM.

And the change in vivo at 3 mg/kg (circulating lymphocytes)?
The change in vivo at 3 mg/kg was -22%.

Which EC50 [1] does the source give for `CCc1cc(-c2noc(-c3cc(OC)nc(C4CCCC4)c3)n2)cc(C)c1OC[C@@H](O)CN1CC(C(=O)O)C1` [Example 12, (S)-1-(3-(4-(5-(2-Cyclopentyl-6-methoxypyridin-4-yl)-1,2,4-oxadiazol-3-yl)-2-ethyl-6-methylphenoxy)-2-hydroxypropyl)azetidine-3-carboxylic acid] here?
The EC50 was 0.3 nM.

And the change in vivo at 10 mg/kg (circulating lymphocytes)?
The change in vivo at 10 mg/kg was -61%.
